This note sets out measurements from the NIST ThermoML archive (doi:10.1016/j.jct.2015.11.016).

For series [1] the following is noted: 298.15 K; 101.33 kPa; Liquid; Vibrating tube method.
Series [2] in a line: xn = mol fraction of the nth substance listed. The note with it: 298.15 K, 100 kPa, Liquid, Vibrating tube method.

Molecules are shown by their SMILES. ± gives the expanded uncertainty stated by the source.

One may read the mass density as the mass of a sample divided by its volume. For the compound `CCCCCCCC` [octane], in series [1], the mass density came out at 698.86 ± 2 kg/m3.

Take `CCCCCCCCCC` [decane]: the mass density in series [1] was determined as 726.15 ± 2 kg/m3. Consider `c1ccccc1` [benzene], for which, in series [1], the mass density was found to be 873.71 ± 2 kg/m3. Regarding `CCCC[N+]1(C)CCCC1.N#CN=C=[N-]` [1-butyl-1-methylpyrrolidinium dicyanamide], the mass density in series [1] is 1014.47 ± 6 kg/m3. As to `CCCC[N+]1(C)CCCC1.N#CN=C=[N-]` [1-butyl-1-methylpyrrolidinium dicyanamide] + c1ccccc1, the mass density in series [2] (x2 = 0.706) turned out to be 964.75 ± 6.2 kg/m3. `CCCC[N+]1(C)CCCC1.N#CN=C=[N-]` [1-butyl-1-methylpyrrolidinium dicyanamide] + CCCCCCCC: in series [2] (x2 = 0.01), the mass density came out at 1012.4 ± 6.1 kg/m3.
